# Measured values as given in patent US4448962A, “Substituted quinoline carboxylic acid derivatives” (Kyorin Seiyaku Kabushiki Kaisha, priority 1978, dated 1984).
# Read-outs that look alike come from different tables or passages of the source.
# Key:
# Assay in all cases: Antibacterial spectrum (Minimum Inhibitory Concentration)
# Format in all cases: cell-based
# Sta. aureus ATCC 14775 = conditions: Staphylococcus aureus
# Excerpt: (§1) The antibacterial tests were done according to the method authorized by the Chemotherapeutic Society of Japan.
# [1] = system: Proteus vulgaris IFO 3167
# Excerpt: as §1
# Ps. aeruginosa IID 1210 = conditions: Pseudomonas aeruginosa
# Excerpt: as §1
# [2] = system: Mycobacterium smegmatis IFO 3083; conditions: Mycolicibacterium smegmatis
# Excerpt: as §1
# [3] = system: Staphylococcus aureus 209P; conditions: read-out: Minimum Inhibitory Concentration
# Excerpt: as §1
# [4] = system: Bacillus subtilis PCI 219
# Excerpt: as §1
# Shigella sonnei IID 969 = conditions: IID969; Shigella sonnei IID 969, Gram -
# Excerpt: as §1
# E. coli ATCC 10536 = conditions: Escherichia coli, ATCC10536, read-out: Minimum Inhibitory Concentration
# Excerpt: as §1
# [5] = system: Klebsiella pneumoniae IFO 3512; conditions: Klebsiella pneumoniae, IFO3512, read-out: Minimum Inhibitory Concentration
# Excerpt: as §1
# Ps. aeruginosa IFO 12689 = conditions: Pseudomonas aeruginosa
# Excerpt: as §1
# Pr. vulgaris XK Denken = conditions: Proteus vulgaris, read-out: Minimum Inhibitory Concentration
# Excerpt: as §1
# Ps. aeruginosa IID 1130 = conditions: Pseudomonas aeruginosa
# Excerpt: as §1
# [6] = system: Pseudomonas aeruginosa V-1
# Excerpt: as §1
# [7] = system: Salmonella enteritidies IID 604
# Excerpt: as §1
# [8] = system: Escherichia coli NIHJ JC-2; conditions: Escherichia coli, NIHJJC2, read-out: Minimum Inhibitory Concentration
# Excerpt: as §1
compound,measurement,setting,value
"CCn1cc(C(=O)O)c(=O)c2ccc(C)nc21 [Nalidixic, nalidixic acid, reference compound]",MIC,"Sta. aureus ATCC 14775; ATCC14775, read-out: Minimum Inhibitory Concentration",> 100 µg/mL
same,MIC,"[1]; Proteus vulgaris, IFO3167, read-out: Minimum Inhibitory Concentration",3.13 µg/mL
same,MIC,"Ps. aeruginosa IID 1210; IID1210, read-out: Minimum Inhibitory Concentration",> 200 µg/mL
same,MIC,"[2]; IFO3083, read-out: Minimum Inhibitory Concentration",> 100 µg/mL
same,MIC,"[3]; Staphylococcus aureus, 209P",100 µg/mL
same,MIC,"[4]; Bacillus subtilis, PCI219, read-out: Minimum Inhibitory Concentration",6.25 µg/mL
same,MIC,Shigella sonnei IID 969,1.56 µg/mL
same,MIC,E. coli ATCC 10536,3.13 µg/mL
same,MIC,[5],1.56 µg/mL
same,MIC,"Ps. aeruginosa IFO 12689; IFO12689, read-out: Minimum Inhibitory Concentration",> 200 µg/mL
same,MIC,Pr. vulgaris XK Denken,3.13 µg/mL
same,MIC,"Ps. aeruginosa IID 1130; IID1130, read-out: Minimum Inhibitory Concentration",> 200 µg/mL
same,MIC,"[6]; Pseudomonas aeruginosa, V1, read-out: Minimum Inhibitory Concentration",100 µg/mL
same,MIC,"[7]; Salmonella, IID604, read-out: Minimum Inhibitory Concentration",12.5 µg/mL
same,MIC,[8],3.13 µg/mL
"CCn1cc(C(=O)O)c(=O)c2cnc(N3CCNCC3)nc21 [Pipemidic acid, reference compound]",MIC,"Sta. aureus ATCC 14775; ATCC14775, Sta. aureus ATCC 14775, Gram +, read-out: Minimum Inhibitory Concentration",100 µg/mL
same,MIC,"[1]; IFO3167, Proteus vulgaris IFO 3167, Gram -, read-out: Minimum Inhibitory Concentration",3.13 µg/mL
same,MIC,"Ps. aeruginosa IID 1210; IID1210, Ps. aeruginosa IID 1210, Gram -, read-out: Minimum Inhibitory Concentration",50 µg/mL
same,MIC,"[2]; IFO3083, Mycobacterium smegmatis IFO 3083, Gram +, read-out: Minimum Inhibitory Concentration",50 µg/mL
same,MIC,"[3]; Staphylococcus aureus 209P, Gram +",25 µg/mL
same,MIC,"[4]; PCI219, Bacillus subtilis PCI 219, Gram +, read-out: Minimum Inhibitory Concentration",6.25 µg/mL
same,MIC,Shigella sonnei IID 969,1.56 µg/mL
same,MIC,E. coli ATCC 10536,1.56 µg/mL
same,MIC,[5],1.56 µg/mL
same,MIC,"Ps. aeruginosa IFO 12689; IFO12689, Ps. aeruginosa IFO 12689, Gram -, read-out: Minimum Inhibitory Concentration",25 µg/mL
same,MIC,"Pr. vulgaris XK Denken; Pr. vulgaris XK Denken, Gram -",6.25 µg/mL
same,MIC,"Ps. aeruginosa IID 1130; IID1130, Ps. aeruginosa IID 1130, Gram -, read-out: Minimum Inhibitory Concentration",25 µg/mL
same,MIC,"[6]; V1, Pseudomonas aeruginosa V-1, Gram -, read-out: Minimum Inhibitory Concentration",12.5 µg/mL
same,MIC,"[7]; IID604, Salmonella enteritidies IID 604, Gram -, read-out: Minimum Inhibitory Concentration",12.5 µg/mL
same,MIC,[8],1.56 µg/mL
